In patent US11572399B2, “Long-acting GIP peptide analogues” (University of Copenhagen, priority 2017, dated 2023):
Where “and” joins values, the source holds several entries; their conditions need not be identical. Equal entries are not always repeated. Peptide text beside a SMILES is read from it. * marks the point of attachment. C16 diacid = O=C(O)CCCCCCCCCCCCCCC(=O)*

How the values were obtained:
human GIP receptor [1] = target: T1, human GIP receptor (Homo sapiens, UniProt P48546); experiment: 125I-human GIP competition binding assay, in the presence and absence of 2% HSA; conditions: for Fold change HSA (2%)/Casein (0.1%): IC50 (plus HSA)/IC50 (minus HSA); for Ki: absence of HSA; for Binding (+/−HSA) Fold: fold change +HSA/−HSA; for Binding fold (paired): fold decrease in affinity compared to GIP(3-30)NH2; for Fold change in affinity, IC50 (plus HSA)/IC50 (minus HSA): presence vs absence of 2% HSA, proxy for albumin binding;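 as to all read-outs here: nonspecific binding taken as radioligand bound to untransfected cells, IC50 obtained from nonlinear regression fits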
T1 construct: host or cells: COS-7, transient transfection (calcium phosphate), cDNA in pCMV-Script
T1 sequence (P48546 22-466): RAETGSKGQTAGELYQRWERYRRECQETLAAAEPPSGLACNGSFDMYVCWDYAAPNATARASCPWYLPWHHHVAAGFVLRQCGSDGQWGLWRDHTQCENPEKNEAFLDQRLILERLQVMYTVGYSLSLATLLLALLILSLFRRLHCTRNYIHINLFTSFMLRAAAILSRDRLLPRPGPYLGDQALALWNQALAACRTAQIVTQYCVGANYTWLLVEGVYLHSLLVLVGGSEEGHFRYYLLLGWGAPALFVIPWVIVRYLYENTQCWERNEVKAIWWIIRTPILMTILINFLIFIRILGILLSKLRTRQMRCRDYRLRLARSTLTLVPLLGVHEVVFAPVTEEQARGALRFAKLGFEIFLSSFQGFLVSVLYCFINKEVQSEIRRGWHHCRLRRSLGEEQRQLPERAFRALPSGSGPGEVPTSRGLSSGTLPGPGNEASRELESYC

human GIP receptor [2] = target: T1, human GIP receptor; experiment: cAMP accumulation assay, agonism (ligand alone); type: cell-based; conditions: Table 1; for Emax: COS-7, intrinsic cAMP activity, COS-7 cells
human GIP receptor [3] = target: T1, human GIP receptor; experiment: cAMP accumulation assay, antagonism of a GIP-mediated cAMP response (50-80% of max); type: cell-based; conditions: for Fold change of IC50 versus GIP(5-30)NH2: fold change of IC50 from GIP(5-30)NH2; for cAMP - antagonisme fold (paired): fold vs GIP(3-30)NH2
Description: The day after, the cells were washed twice with Hepes buffered saline (HBS) buffer and incubated with HBS and 1 mM 3-isobutyl-1-methylxanthine (IBMX) for 30 min at 37° C. […] The HitHunter™ cAMP XS assay (DiscoveRx) was carried out according to the manufacturer's instructions.

[4] = transiently transfected COS-7 cells, Table 1 and text, read-out: cAMP antagonism nM (IC50, antagonistic potency)
[5] = Table 3b, initial data, read-out: Binding IC50
[6] = binding in 0.1% casein (absence of HSA), log value, read-out: logIC50 0.1% casein (converted)
[7] = given as log IC50 (negative sign), transiently transfected COS-7 cells, Table 1, read-out: cAMP antagonism log (converted)
[8] = binding in presence of 2% HSA, read-out: logIC50 2% HSA (converted)
[9] = heterologous competition binding, transiently transfected COS-7 cells expressing the human GIP receptor, read-out: Binding

Row | SMILES | Fold change HSA (2%)/Casein (0.1%) (human GIP receptor [1]) | Ki (human GIP receptor [1]) [nM] | Binding (+/−HSA) Fold (human GIP receptor [1]) | IC50 (human GIP receptor [1]; heterologous competition binding, transiently transfected COS-7 cells expressing the human GIP receptor, log value of the nM column, read-out: Binding log (converted)) | Emax (human GIP receptor [2]) [%] | EC50 (human GIP receptor [2]; given as log EC50 (negative sign), read-out: cAMP agonism EC50 (log) (converted)) | Fold change of IC50 versus GIP(5-30)NH2 (human GIP receptor [3]) | IC50 (human GIP receptor [3]; [4]) [nM] | IC50 (human GIP receptor [1]; [5]) [nM] | IC50 (human GIP receptor [1]; [6]) [nM] | Binding fold (paired) (human GIP receptor [1]; Table 3b) [fold] | Fold change in affinity, IC50 (plus HSA)/IC50 (minus HSA) (human GIP receptor [1]) [fold] | IC50 (human GIP receptor [3]; Table 3b, initial data, read-out: cAMP - antagonisme IC50) [nM] | cAMP - antagonisme fold (paired) (human GIP receptor [3]; Table 3b) [fold] | IC50 (human GIP receptor [3]; [7]) [nM] | IC50 (human GIP receptor [1]; 0.1% casein, no HSA, Table 3b, read-out: Binding logIC50 0.1% casein (converted)) [nM] | IC50 (human GIP receptor [1]; 2% HSA, Table 3b, read-out: Binding logIC50 2% HSA (converted)) [nM] | IC50 (human GIP receptor [1]; [8]) [nM] | IC50 (human GIP receptor [1]; [9]) [nM]
1 | CC[C@H](C)[C@H](NC(=O)[C@H](CO)NC(=O)[C@H](Cc1ccc(O)cc1)NC(=O)[C@H](CC(=O)O)NC(=O)[C@H](CO)NC(=O)[C@@H](NC(=O)[C@H](Cc1ccccc1)NC(=O)[C@@H](N)[C@@H](C)O)[C@@H](C)CC)C(=O)N[C@@H](C)C(=O)N[C@@H](CCSC)C(=O)N[C@@H](CC(=O)O)C(=O)N[C@@H](CCCCN)C(=O)N[C@H](C(=O)N[C@@H](Cc1c[nH]cn1)C(=O)N[C@@H](CCC(N)=O)C(=O)N[C@@H](CCC(N)=O)C(=O)N[C@@H](CC(=O)O)C(=O)N[C@@H](Cc1ccccc1)C(=O)N[C@H](C(=O)N[C@@H](CC(N)=O)C(=O)N[C@@H](Cc1c[nH]c2ccccc12)C(=O)N[C@@H](CC(C)C)C(=O)N[C@@H](CC(C)C)C(=O)N[C@@H](CCCCNC(=O)CCCCCCCCCCCCCCC(=O)O)C(=O)N[C@@H](CCC(N)=O)C(=O)N[C@@H](CCCCN)C(N)=O)C(C)C)[C@@H](C)CC [AT188, [hGIP(5-30)NH2[A28K]-C16diacid/28]] (H-TFISDYSIAMDKIHQQDFVNWLLK(C16 diacid)QK-NH2; N-terminus assumed) | 0.0 | 144 | 3.2 | 200 nM and 183 nM | 10 | 100 nM and 158 nM | 6.8 | 152 | – | – | – | – | – | – | – | – | – | – | –
2 | CCCCCCCCCCCCCCCCCC(=O)NCCCC[C@H](NC(=O)[C@H](CC(=O)O)NC(=O)[C@H](CCSC)NC(=O)[C@H](C)NC(=O)[C@@H](NC(=O)[C@H](CO)NC(=O)[C@H](Cc1ccc(O)cc1)NC(=O)[C@H](CC(=O)O)NC(=O)[C@H](CO)NC(=O)[C@@H](NC(=O)[C@H](Cc1ccccc1)NC(=O)[C@@H](NC(=O)CNC(=O)[C@@H](N)CCC(=O)O)[C@@H](C)O)[C@@H](C)CC)[C@@H](C)CC)C(=O)N[C@H](C(=O)N[C@@H](Cc1c[nH]cn1)C(=O)N[C@@H](CCC(N)=O)C(=O)N[C@@H](CCC(N)=O)C(=O)N[C@@H](CC(=O)O)C(=O)N[C@@H](Cc1ccccc1)C(=O)N[C@H](C(=O)N[C@@H](CC(N)=O)C(=O)N[C@@H](Cc1c[nH]c2ccccc12)C(=O)N[C@@H](CC(C)C)C(=O)N[C@@H](CC(C)C)C(=O)N[C@@H](C)C(=O)N[C@@H](CCC(N)=O)C(=O)N[C@@H](CCCCN)C(N)=O)C(C)C)[C@@H](C)CC [AT114, [hGIP(3-30)NH2—C18/16]] | 11.2 | – | – | – | 39 | – | – | – | 102 | 501 | 6.7 | 7.7 | 29.2 | 2.3 | 63.1 | – | – | – | –
3 | CC[C@H](C)[C@H](NC(=O)[C@H](CO)NC(=O)[C@H](Cc1ccc(O)cc1)NC(=O)[C@H](CC(=O)O)NC(=O)[C@H](CO)NC(=O)[C@@H](NC(=O)[C@H](Cc1ccccc1)NC(=O)[C@@H](N)[C@@H](C)O)[C@@H](C)CC)C(=O)N[C@@H](C)C(=O)N[C@@H](CCSC)C(=O)N[C@@H](CC(=O)O)C(=O)N[C@@H](CCCCN)C(=O)N[C@H](C(=O)N[C@@H](Cc1c[nH]cn1)C(=O)N[C@@H](CCC(N)=O)C(=O)N[C@@H](CCC(N)=O)C(=O)N[C@@H](CC(=O)O)C(=O)N[C@@H](Cc1ccccc1)C(=O)N[C@H](C(=O)N[C@@H](CCCCNC(=O)CCCCCCCCCCCCCCC(=O)O)C(=O)N[C@@H](Cc1c[nH]c2ccccc12)C(=O)N[C@@H](CC(C)C)C(=O)N[C@@H](CC(C)C)C(=O)N[C@@H](C)C(=O)N[C@@H](CCC(N)=O)C(=O)N[C@@H](CCCCN)C(N)=O)C(C)C)[C@@H](C)CC [AT184, [hGIP(5-30)NH2[N24K]-C16diacid/24]] (H-TFISDYSIAMDKIHQQDFVK(C16 diacid)WLLAQK-NH2; N-terminus assumed) | 1.6 | 224 | 3.9 | – | 0 | – | 3.9 | – | – | – | – | – | – | – | – | – | – | – | –
4 | CCCCCCCCCCCCCC(=O)NCCCC[C@H](NC(=O)[C@H](CC(=O)O)NC(=O)[C@H](CCSC)NC(=O)[C@H](C)NC(=O)[C@@H](NC(=O)[C@H](CO)NC(=O)[C@H](Cc1ccc(O)cc1)NC(=O)[C@H](CC(=O)O)NC(=O)[C@H](CO)NC(=O)[C@@H](NC(=O)[C@H](Cc1ccccc1)NC(=O)[C@@H](NC(=O)CNC(=O)[C@@H](N)CCC(=O)O)[C@@H](C)O)[C@@H](C)CC)[C@@H](C)CC)C(=O)N[C@H](C(=O)N[C@@H](Cc1c[nH]cn1)C(=O)N[C@@H](CCC(N)=O)C(=O)N[C@@H](CCC(N)=O)C(=O)N[C@@H](CC(=O)O)C(=O)N[C@@H](Cc1ccccc1)C(=O)N[C@H](C(=O)N[C@@H](CC(N)=O)C(=O)N[C@@H](Cc1c[nH]c2ccccc12)C(=O)N[C@@H](CC(C)C)C(=O)N[C@@H](CC(C)C)C(=O)N[C@@H](C)C(=O)N[C@@H](CCC(N)=O)C(=O)N[C@@H](CCCCN)C(N)=O)C(C)C)[C@@H](C)CC [AT111, [hGIP(3-30)NH2—C14/16]] | 5.1 | – | – | – | 0 | – | – | 22 | 261 | – | 31 | 5.1 | – | 3.3 | 25.1 | 407 | 2090 | 2090 | 261
5 | CC[C@H](C)[C@H](NC(=O)[C@H](CO)NC(=O)[C@H](Cc1ccc(O)cc1)NC(=O)[C@H](CC(=O)O)NC(=O)[C@H](CO)NC(=O)[C@@H](NC(=O)[C@H](Cc1ccccc1)NC(=O)[C@@H](N)[C@@H](C)O)[C@@H](C)CC)C(=O)N[C@@H](C)C(=O)N[C@@H](CCSC)C(=O)N[C@@H](CC(=O)O)C(=O)N[C@@H](CCCCNC(=O)CCCCCCCCCCCCCCC(=O)O)C(=O)N[C@H](C(=O)N[C@@H](Cc1c[nH]cn1)C(=O)N[C@@H](CCC(N)=O)C(=O)N[C@@H](CCC(N)=O)C(=O)N[C@@H](CC(=O)O)C(=O)N[C@@H](Cc1ccccc1)C(=O)N[C@H](C(=O)N[C@@H](CC(N)=O)C(=O)N[C@@H](Cc1c[nH]c2ccccc12)C(=O)N[C@@H](CC(C)C)C(=O)N[C@@H](CC(C)C)C(=O)N[C@@H](C)C(=O)N[C@@H](CCC(N)=O)C(=O)N[C@@H](CCCCN)C(N)=O)C(C)C)[C@@H](C)CC [AT140, [hGIP(5-30)NH2—C16diacid/16]] | 1.5 | 2160 | 1.5 | – | 0 | – | 7.4 | 205 | – | 2000 | – | – | – | – | – | – | – | 3280 | 2160
6 | CC[C@H](C)[C@H](NC(=O)[C@H](CO)NC(=O)[C@H](CCCCNC(=O)CCCCCCCCCCCCCCC(=O)O)NC(=O)[C@H](CC(=O)O)NC(=O)[C@H](CO)NC(=O)[C@@H](NC(=O)[C@H](Cc1ccccc1)NC(=O)[C@@H](N)[C@@H](C)O)[C@@H](C)CC)C(=O)N[C@@H](C)C(=O)N[C@@H](CCSC)C(=O)N[C@@H](CC(=O)O)C(=O)N[C@@H](CCCCN)C(=O)N[C@H](C(=O)N[C@@H](Cc1c[nH]cn1)C(=O)N[C@@H](CCC(N)=O)C(=O)N[C@@H](CCC(N)=O)C(=O)N[C@@H](CC(=O)O)C(=O)N[C@@H](Cc1ccccc1)C(=O)N[C@H](C(=O)N[C@@H](CC(N)=O)C(=O)N[C@@H](Cc1c[nH]c2ccccc12)C(=O)N[C@@H](CC(C)C)C(=O)N[C@@H](CC(C)C)C(=O)N[C@@H](C)C(=O)N[C@@H](CCC(N)=O)C(=O)N[C@@H](CCCCN)C(N)=O)C(C)C)[C@@H](C)CC [AT172, [hGIP(5-30)NH2[Y10K]-C16diacid/10]] (H-TFISDK(C16 diacid)SIAMDKIHQQDFVNWLLAQK-NH2; N-terminus assumed) | 3.8 | – | 2.8 | – | 0 | – | 14.1 | – | – | 251 | – | – | – | – | – | – | – | 955 | 252
